Data from ChEMBL document CHEMBL5715260, “Selectivity Literature for EUbOPEN Chemogenomic Library” (2024).
Values belong to the molecule of their own block, whether it stands above or below them.

Tests used:
[1] = target: T1, Hepatocyte nuclear factor 4-alpha (Homo sapiens) (UniProt P41235); test: Selectivity interaction (Reporter gene assay) EUB0001156a HNF4A; parameters: recommended concentration 1 uM
T1 sequence (whole entry): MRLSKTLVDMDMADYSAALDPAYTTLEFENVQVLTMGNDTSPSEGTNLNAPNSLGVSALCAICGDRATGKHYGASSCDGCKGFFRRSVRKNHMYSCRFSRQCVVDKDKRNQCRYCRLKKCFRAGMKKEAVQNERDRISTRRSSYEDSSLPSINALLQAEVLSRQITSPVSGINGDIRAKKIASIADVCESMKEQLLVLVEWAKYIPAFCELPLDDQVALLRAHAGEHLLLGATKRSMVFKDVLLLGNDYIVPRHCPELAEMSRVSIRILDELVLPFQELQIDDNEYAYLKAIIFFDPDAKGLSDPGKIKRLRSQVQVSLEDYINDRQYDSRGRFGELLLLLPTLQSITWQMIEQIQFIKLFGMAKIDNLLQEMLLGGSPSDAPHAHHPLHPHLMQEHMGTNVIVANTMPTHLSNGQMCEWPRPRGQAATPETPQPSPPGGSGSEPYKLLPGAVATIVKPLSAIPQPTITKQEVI

[2] = target: T2, Nuclear receptor subfamily 2 group C member 1 (Homo sapiens) (UniProt P13056); test: Selectivity interaction (Reporter gene assay) EUB0001156a NR2C1; parameters: recommended concentration 1 uM
T2 sequence (whole entry): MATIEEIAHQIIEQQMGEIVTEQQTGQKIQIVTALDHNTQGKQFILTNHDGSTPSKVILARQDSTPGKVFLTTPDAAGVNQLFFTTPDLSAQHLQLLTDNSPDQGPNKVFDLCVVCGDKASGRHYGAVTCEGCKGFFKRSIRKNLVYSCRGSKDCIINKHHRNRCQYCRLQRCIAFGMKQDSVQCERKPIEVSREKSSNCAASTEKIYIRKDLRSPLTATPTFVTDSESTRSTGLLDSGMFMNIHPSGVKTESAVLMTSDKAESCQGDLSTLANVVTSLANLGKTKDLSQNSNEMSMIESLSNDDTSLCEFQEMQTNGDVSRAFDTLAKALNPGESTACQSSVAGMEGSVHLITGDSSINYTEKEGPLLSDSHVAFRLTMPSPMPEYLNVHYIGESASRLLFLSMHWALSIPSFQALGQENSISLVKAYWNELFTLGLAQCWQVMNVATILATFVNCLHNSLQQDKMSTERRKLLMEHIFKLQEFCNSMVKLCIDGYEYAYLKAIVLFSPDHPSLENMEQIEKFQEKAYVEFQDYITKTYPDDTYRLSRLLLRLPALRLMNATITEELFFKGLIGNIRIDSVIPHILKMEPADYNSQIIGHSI

[3] = target: Nuclear receptor subfamily 2 group E member 1 (Homo sapiens) (UniProt Q9Y466); test: Selectivity interaction (Reporter gene assay) EUB0001156a NR2E1; parameters: recommended concentration 1 uM
Sequence of Nuclear receptor subfamily 2 group E member 1 (Homo sapiens) (Q9Y466 whole entry): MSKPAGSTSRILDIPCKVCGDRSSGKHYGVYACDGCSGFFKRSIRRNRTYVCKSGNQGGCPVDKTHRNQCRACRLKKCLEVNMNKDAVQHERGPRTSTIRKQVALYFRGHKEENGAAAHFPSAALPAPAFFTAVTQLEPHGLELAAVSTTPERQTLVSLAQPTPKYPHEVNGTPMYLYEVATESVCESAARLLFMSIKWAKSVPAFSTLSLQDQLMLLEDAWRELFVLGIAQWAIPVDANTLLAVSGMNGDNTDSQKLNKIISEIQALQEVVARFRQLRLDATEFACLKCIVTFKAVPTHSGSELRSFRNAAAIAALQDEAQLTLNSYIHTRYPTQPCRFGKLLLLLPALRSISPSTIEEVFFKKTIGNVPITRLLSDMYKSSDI

[4] = target: Nuclear receptor subfamily 4immunitygroup A member 1 (Homo sapiens) (UniProt P22736); test: Selectivity interaction (Reporter gene assay) EUB0001156a NR4A1; parameters: recommended concentration 1 uM
Sequence of Nuclear receptor subfamily 4immunitygroup A member 1 (Homo sapiens) (P22736 whole entry): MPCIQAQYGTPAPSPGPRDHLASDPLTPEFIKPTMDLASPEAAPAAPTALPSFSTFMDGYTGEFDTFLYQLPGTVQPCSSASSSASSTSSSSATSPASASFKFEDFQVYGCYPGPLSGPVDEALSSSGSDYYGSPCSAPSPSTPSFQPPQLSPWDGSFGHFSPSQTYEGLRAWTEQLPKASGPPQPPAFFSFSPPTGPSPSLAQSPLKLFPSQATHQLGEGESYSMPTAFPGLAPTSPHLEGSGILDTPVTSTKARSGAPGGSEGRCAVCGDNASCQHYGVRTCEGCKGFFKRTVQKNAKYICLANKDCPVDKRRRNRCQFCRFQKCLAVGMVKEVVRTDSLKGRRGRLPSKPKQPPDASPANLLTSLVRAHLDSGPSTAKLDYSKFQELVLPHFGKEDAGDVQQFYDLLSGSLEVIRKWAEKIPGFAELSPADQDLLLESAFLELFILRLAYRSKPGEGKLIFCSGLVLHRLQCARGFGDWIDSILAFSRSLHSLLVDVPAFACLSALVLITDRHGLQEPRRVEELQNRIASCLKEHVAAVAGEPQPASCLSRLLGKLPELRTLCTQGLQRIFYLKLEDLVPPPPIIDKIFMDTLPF

[5] = target: Steroidogenic factor 1 (Homo sapiens) (UniProt Q13285); test: Selectivity interaction (Reporter gene assay) EUB0001156a NR5A1; parameters: recommended concentration 1 uM
Sequence of Steroidogenic factor 1 (Homo sapiens) (Q13285 whole entry): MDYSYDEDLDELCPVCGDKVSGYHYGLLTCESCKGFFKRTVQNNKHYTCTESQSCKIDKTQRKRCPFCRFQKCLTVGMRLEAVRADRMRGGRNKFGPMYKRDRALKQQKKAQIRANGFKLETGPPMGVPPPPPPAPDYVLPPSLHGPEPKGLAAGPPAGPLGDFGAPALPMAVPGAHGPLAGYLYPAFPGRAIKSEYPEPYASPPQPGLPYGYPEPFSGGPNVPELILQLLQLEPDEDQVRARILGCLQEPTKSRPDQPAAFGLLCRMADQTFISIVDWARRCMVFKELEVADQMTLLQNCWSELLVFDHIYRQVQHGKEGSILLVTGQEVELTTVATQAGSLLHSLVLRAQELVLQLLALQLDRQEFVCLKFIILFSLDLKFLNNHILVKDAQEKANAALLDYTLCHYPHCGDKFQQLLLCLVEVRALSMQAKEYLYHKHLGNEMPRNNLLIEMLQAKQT

[6] = target: T3, Alpha trans-inducing protein (Human alphaherpesvirus 1) (UniProt A0A5J6DW59); test: Selectivity interaction (Reporter gene assay) EUB0001156a UL48; parameters: recommended concentration 1 uM; settings: screened at recom. conc., Selectivity number of off-targets 0.0, Selectivity number of targets 1.0, Source Knowledge inhouse
T3 sequence (A0A5J6DW59 as listed by the source): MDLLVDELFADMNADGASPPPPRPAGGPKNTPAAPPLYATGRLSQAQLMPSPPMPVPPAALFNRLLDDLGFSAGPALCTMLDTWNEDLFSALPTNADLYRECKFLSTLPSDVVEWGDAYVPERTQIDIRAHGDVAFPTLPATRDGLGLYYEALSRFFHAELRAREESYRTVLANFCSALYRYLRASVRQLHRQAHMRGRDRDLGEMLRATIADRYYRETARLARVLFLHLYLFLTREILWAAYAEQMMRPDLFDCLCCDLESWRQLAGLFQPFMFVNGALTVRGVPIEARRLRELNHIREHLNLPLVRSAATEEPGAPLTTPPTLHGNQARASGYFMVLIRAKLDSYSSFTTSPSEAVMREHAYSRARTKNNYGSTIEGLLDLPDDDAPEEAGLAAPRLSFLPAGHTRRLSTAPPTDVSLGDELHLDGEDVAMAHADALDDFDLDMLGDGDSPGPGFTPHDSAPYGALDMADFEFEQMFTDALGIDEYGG

[7] = target: T4, Retinoic acid receptor RXR-alpha (Homo sapiens) (UniProt P19793); test: Selectivity interaction (Reporter gene assay) EUB0001156a RXRA; parameters: recommended concentration 1 uM; settings: reference bexarotene 1 uM, Selectivity number of off-targets 0.0, Selectivity number of targets 1.0, Source Knowledge inhouse
T4 sequence (whole entry): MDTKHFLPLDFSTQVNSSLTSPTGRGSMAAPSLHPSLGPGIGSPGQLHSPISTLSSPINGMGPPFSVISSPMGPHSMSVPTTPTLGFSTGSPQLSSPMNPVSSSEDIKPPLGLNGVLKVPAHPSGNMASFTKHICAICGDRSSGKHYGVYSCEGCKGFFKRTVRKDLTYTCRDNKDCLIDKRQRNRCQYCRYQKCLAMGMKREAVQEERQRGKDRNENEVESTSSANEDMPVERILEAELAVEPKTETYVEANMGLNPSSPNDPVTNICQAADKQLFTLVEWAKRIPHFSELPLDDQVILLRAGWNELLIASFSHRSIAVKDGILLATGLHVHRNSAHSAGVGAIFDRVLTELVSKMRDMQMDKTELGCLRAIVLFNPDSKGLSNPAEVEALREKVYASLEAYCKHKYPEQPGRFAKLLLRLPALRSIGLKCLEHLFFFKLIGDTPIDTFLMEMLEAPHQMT

[8] = target: T1, Hepatocyte nuclear factor 4-alpha (Homo sapiens); test: Selectivity interaction (Reporter gene assay) EUB0001145aNa HNF4A; parameters: recommended concentration 1 uM
[9] = target: T2, Nuclear receptor subfamily 2 group C member 1 (Homo sapiens); test: Selectivity interaction (Reporter gene assay) EUB0001145aNa NR2C1; parameters: recommended concentration 1 uM
[10] = target: Nuclear receptor subfamily 2 group E member 1 (Homo sapiens) (UniProt Q9Y466); test: Selectivity interaction (Reporter gene assay) EUB0001145aNa NR2E1; parameters: recommended concentration 1 uM
[11] = target: Nuclear receptor subfamily 4immunitygroup A member 1 (Homo sapiens) (UniProt P22736); test: Selectivity interaction (Reporter gene assay) EUB0001145aNa NR4A1; parameters: recommended concentration 1 uM
[12] = target: Steroidogenic factor 1 (Homo sapiens) (UniProt Q13285); test: Selectivity interaction (Reporter gene assay) EUB0001145aNa NR5A1; parameters: recommended concentration 1 uM
[13] = target: T3, Alpha trans-inducing protein (Human alphaherpesvirus 1); test: Selectivity interaction (Reporter gene assay) EUB0001145aNa UL48; parameters: recommended concentration 1 uM
[14] = target: T4, Retinoic acid receptor RXR-alpha (Homo sapiens); test: Selectivity interaction (Reporter gene assay) EUB0001145aNa RXRA; parameters: recommended concentration 1 uM; settings: reference bexarotene 1 uM, Selectivity number of off-targets 0.0, Selectivity number of targets 1.0, Source Knowledge inhouse
[15] = target: T2, Nuclear receptor subfamily 2 group C member 1 (Homo sapiens); test: Selectivity interaction (Reporter gene assay) EUB0001155a NR2C1; parameters: recommended concentration 10 uM; settings: screened at recom. conc., Selectivity number of off-targets 2.0, Selectivity number of targets 5.0, Source Knowledge inhouse
[16] = target: Nuclear receptor subfamily 2 group E member 1 (Homo sapiens) (UniProt Q9Y466); test: Selectivity interaction (Reporter gene assay) EUB0001155a NR2E1; parameters: recommended concentration 10 uM; settings: screened at recom. conc., Selectivity number of off-targets 2.0, Selectivity number of targets 5.0, Source Knowledge inhouse
[17] = target: T1, Hepatocyte nuclear factor 4-alpha (Homo sapiens); test: Selectivity interaction (Reporter gene assay) EUB0001155a HNF4A; parameters: recommended concentration 10 uM
[18] = target: Nuclear receptor subfamily 4immunitygroup A member 1 (Homo sapiens) (UniProt P22736); test: Selectivity interaction (Reporter gene assay) EUB0001155a NR4A1; parameters: recommended concentration 10 uM
[19] = target: Steroidogenic factor 1 (Homo sapiens) (UniProt Q13285); test: Selectivity interaction (Reporter gene assay) EUB0001155a NR5A1; parameters: recommended concentration 10 uM
[20] = target: T3, Alpha trans-inducing protein (Human alphaherpesvirus 1); test: Selectivity interaction (Reporter gene assay) EUB0001155a UL48; parameters: recommended concentration 10 uM
[21] = target: T4, Retinoic acid receptor RXR-alpha (Homo sapiens); test: Selectivity interaction (Reporter gene assay) EUB0001155a RXRA; parameters: recommended concentration 10 uM; settings: reference bexarotene 1 uM, Selectivity number of off-targets 0.0, Selectivity number of targets 1.0, Source Knowledge inhouse
[22] = target: T1, Hepatocyte nuclear factor 4-alpha (Homo sapiens); test: Selectivity interaction (Reporter gene assay) EUB0001150a HNF4A; parameters: recommended concentration 10 uM
[23] = target: T2, Nuclear receptor subfamily 2 group C member 1 (Homo sapiens); test: Selectivity interaction (Reporter gene assay) EUB0001150a NR2C1; parameters: recommended concentration 10 uM
[24] = target: Nuclear receptor subfamily 2 group E member 1 (Homo sapiens) (UniProt Q9Y466); test: Selectivity interaction (Reporter gene assay) EUB0001150a NR2E1; parameters: recommended concentration 10 uM
[25] = target: Nuclear receptor subfamily 4immunitygroup A member 1 (Homo sapiens) (UniProt P22736); test: Selectivity interaction (Reporter gene assay) EUB0001150a NR4A1; parameters: recommended concentration 10 uM
[26] = target: Steroidogenic factor 1 (Homo sapiens) (UniProt Q13285); test: Selectivity interaction (Reporter gene assay) EUB0001150a NR5A1; parameters: recommended concentration 10 uM
[27] = target: T3, Alpha trans-inducing protein (Human alphaherpesvirus 1); test: Selectivity interaction (Reporter gene assay) EUB0001150a UL48; parameters: recommended concentration 10 uM
[28] = target: T4, Retinoic acid receptor RXR-alpha (Homo sapiens); test: Selectivity interaction (Reporter gene assay) EUB0001150a RXRA; parameters: recommended concentration 10 uM; settings: reference bexarotene 1 uM, Selectivity number of off-targets 0.0, Selectivity number of targets 1.0, Source Knowledge inhouse
[29] = target: T5, Peroxisome proliferator-activated receptor gamma (Homo sapiens) (UniProt P37231); test: Selectivity interaction (Reporter gene assay) EUB0001151a PPARG; parameters: recommended concentration 1 uM; settings: screened at recom. conc., Selectivity number of off-targets 1.0, Selectivity number of targets 19.0, Source Knowledge inhouse
T5 sequence (whole entry): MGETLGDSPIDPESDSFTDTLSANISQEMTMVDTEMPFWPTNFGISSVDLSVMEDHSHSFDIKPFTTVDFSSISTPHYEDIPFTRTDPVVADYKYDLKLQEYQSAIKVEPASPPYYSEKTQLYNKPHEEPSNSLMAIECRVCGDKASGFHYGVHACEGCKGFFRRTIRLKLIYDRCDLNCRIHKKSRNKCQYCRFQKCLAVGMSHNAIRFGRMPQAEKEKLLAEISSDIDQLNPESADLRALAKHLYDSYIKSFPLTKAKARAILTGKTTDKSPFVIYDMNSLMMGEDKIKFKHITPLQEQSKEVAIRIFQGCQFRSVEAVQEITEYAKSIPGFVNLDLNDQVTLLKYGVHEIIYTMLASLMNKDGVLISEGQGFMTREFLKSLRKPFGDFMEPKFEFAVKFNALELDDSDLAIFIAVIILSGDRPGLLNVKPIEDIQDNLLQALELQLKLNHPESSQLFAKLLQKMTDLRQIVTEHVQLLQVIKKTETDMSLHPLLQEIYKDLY

[30] = target: T1, Hepatocyte nuclear factor 4-alpha (Homo sapiens); test: Selectivity interaction (Reporter gene assay) EUB0001151a HNF4A; parameters: recommended concentration 1 uM
[31] = target: T2, Nuclear receptor subfamily 2 group C member 1 (Homo sapiens); test: Selectivity interaction (Reporter gene assay) EUB0001151a NR2C1; parameters: recommended concentration 1 uM
[32] = target: Nuclear receptor subfamily 2 group E member 1 (Homo sapiens) (UniProt Q9Y466); test: Selectivity interaction (Reporter gene assay) EUB0001151a NR2E1; parameters: recommended concentration 1 uM
[33] = target: Nuclear receptor subfamily 4immunitygroup A member 1 (Homo sapiens) (UniProt P22736); test: Selectivity interaction (Reporter gene assay) EUB0001151a NR4A1; parameters: recommended concentration 1 uM
[34] = target: Steroidogenic factor 1 (Homo sapiens) (UniProt Q13285); test: Selectivity interaction (Reporter gene assay) EUB0001151a NR5A1; parameters: recommended concentration 1 uM
[35] = target: T3, Alpha trans-inducing protein (Human alphaherpesvirus 1); test: Selectivity interaction (Reporter gene assay) EUB0001151a UL48; parameters: recommended concentration 1 uM
[36] = target: T4, Retinoic acid receptor RXR-alpha (Homo sapiens); test: Selectivity interaction (Reporter gene assay) EUB0001151a RXRA; parameters: recommended concentration 1 uM; settings: reference bexarotene 1 uM, Selectivity number of off-targets 0.0, Selectivity number of targets 1.0, Source Knowledge inhouse

SMILES: CCO[C@H](COc1ccc(C(F)(F)F)cc1)CSc1ccc(OCC(=O)O)c(C)c1
- Fold activation [8]: 1.17
- Fold activation [9]: 1.29
- Fold activation [10]: 1.14
- Fold activation [11]: 1.09
- Fold activation [12]: 1.13
- P-value [13]: 0.0052
- Relative activation [14]: 0.702%

SMILES: CCCCCNC(=O)N1CCC(CN(Cc2ccc(Cl)cc2)Cc2ccc([N+](=O)[O-])s2)C1 (stereo unspecified)
- Remaining activity [15]: 0.487
- Remaining activity [16]: 0.483
- Remaining activity [17]: 0.711
- Fold activation [18]: 1.24
- Fold activation [19]: 1.16
- P-value [20]: 1.75e-05
- Relative activation [21]: 0.1%

SMILES: COC(=O)c1sccc1S(=O)(=O)Nc1ccc(Nc2ccccc2)cc1OC
- Remaining activity [22]: 0.51
- Remaining activity [23]: 0.679
- Remaining activity [24]: 0.608
- Remaining activity [25]: 0.906
- Remaining activity [26]: 0.63
- P-value [27]: 0.0012
- Relative activation [28]: 0.476%

Results, then the molecule that gave them:

- Fold activation [1]: 1.11
- Fold activation [2]: 1.1
- Remaining activity [3]: 0.903
- Remaining activity [4]: 0.858
- Fold activation [5]: 1.1
- P-value [6]: 0.167
- Relative activation [7]: 0.302%
SMILES: O=C(Nc1ccc(C(O)(C(F)(F)F)C(F)(F)F)cc1)c1ccc(C(F)(F)F)cc1

- Remaining activity [29]: 0.832
- Fold activation [30]: 1.25
- Fold activation [31]: 1.39
- Fold activation [32]: 1.11
- Fold activation [33]: 1.27
- Remaining activity [34]: 0.9
- P-value [35]: 0.0023
- Relative activation [36]: 0.596%
SMILES: O=C(NCCS(=O)(=O)c1ccc(C(F)(F)F)cn1)c1ccc(Cl)cc1
